Source: US20210161855A1, “5-LIPOXYGENASE ANTAGONISTS” (INSTITUTO DE MEDICINA MOLECULAR JOÃO LOBO ANTUNES, priority 2017, published 2021)
Values after ≈ are worked out from the molar mass of the structure shown.

Experiments:
12-LO = molecular target: T1, 12-LO (Homo sapiens, UniProt P18054); assay: 12-LO inhibition in intact human neutrophils; type: cell-based; conditions: without DTT
T1 construct: endogenous in cells; host or cells: human blood neutrophil preparation
T1 sequence (P18054 1-663): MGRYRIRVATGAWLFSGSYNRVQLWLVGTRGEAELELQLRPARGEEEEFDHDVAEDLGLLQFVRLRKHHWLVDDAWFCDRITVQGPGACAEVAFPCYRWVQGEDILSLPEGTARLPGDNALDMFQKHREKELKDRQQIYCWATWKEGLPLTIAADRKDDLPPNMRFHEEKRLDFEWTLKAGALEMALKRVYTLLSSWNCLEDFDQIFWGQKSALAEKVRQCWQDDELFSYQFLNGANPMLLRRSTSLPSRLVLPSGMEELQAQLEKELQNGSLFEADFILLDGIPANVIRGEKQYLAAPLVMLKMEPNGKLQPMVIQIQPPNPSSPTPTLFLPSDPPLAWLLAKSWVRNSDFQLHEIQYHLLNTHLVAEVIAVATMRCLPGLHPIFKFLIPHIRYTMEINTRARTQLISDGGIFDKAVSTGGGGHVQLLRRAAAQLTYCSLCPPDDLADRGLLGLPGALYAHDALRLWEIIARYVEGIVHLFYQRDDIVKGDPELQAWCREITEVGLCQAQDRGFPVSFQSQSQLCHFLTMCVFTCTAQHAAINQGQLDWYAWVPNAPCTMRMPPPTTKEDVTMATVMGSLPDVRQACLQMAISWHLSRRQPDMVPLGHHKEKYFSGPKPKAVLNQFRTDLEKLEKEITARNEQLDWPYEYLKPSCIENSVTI
Description: (§1) Peripheral blood (University Hospital Jena, Germany) was withdrawn from healthy adult volunteers with consent that had not taken any anti-inflammatory drugs during the last 10 days, by venipuncture in heparinized tubes (16 IE heparin/mL blood). The blood was centrifuged at 4000 g for 20 min at 20° C. for preparation of leukocyte concentrates. Leukocyte concentrates were then subjected to dextran sedimentation and centrifugation on lymphocyte separation medium (LSM 1077, PAA, Colbe, Germany). Contaminating erythrocytes of pelleted neutrophils were removed by hypotonic Iysis. […] Method B. […] Cysteinyl-LTs C4, D4 and E4 were not detected (amounts were below detection limit), and oxidation products of LTB4 were not determined.

15-LO = 15-LO inhibition in intact human neutrophils; type: cell-based; conditions: without DTT
Description: as §1

5-lipoxygenase (5-LO) = molecular target: T2, 5-lipoxygenase (5-LO) (Homo sapiens, UniProt P09917); assay: 5-LO inhibition assay, Method A (Cerep), cell-free functional; type: biochemical
T2 sequence (P09917 1-674): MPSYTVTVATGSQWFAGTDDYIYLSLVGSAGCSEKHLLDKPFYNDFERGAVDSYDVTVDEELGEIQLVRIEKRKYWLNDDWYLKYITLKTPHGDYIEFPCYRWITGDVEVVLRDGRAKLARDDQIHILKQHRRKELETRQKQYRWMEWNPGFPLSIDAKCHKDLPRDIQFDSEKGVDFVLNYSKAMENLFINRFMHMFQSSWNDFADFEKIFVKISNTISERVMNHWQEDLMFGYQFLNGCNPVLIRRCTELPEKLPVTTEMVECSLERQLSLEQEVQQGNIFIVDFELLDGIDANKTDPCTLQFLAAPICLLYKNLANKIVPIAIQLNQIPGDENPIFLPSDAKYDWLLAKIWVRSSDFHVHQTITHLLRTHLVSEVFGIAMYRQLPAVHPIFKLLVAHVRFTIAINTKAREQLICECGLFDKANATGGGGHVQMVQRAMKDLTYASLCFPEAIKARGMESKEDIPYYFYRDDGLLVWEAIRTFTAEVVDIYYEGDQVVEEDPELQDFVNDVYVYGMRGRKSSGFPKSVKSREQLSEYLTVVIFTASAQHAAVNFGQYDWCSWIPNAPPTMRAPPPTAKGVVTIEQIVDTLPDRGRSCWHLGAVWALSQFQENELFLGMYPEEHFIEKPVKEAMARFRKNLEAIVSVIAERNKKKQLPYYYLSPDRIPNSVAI
Description: Method A: 5-Lipoxygenase (5-LO), 12-lipoxygenase (12-LO) and 15-lipoxygenase-2 (15-LO-2) inhibition assays were performed at Cerep, SA (Celle l'Evescault, France) on a fee-for-service basis (Ref 0772^36, 0883^37 and 0893^38, respectively), as described in Table 1.

TRPV1 = TRPV1 (Homo sapiens, UniProt Q8NER1); assay: TRPV1 channel antagonism, functional assay; type: cell-based; conditions: 150 μM
Chain of TRPV1 (Q8NER1 whole entry, species assumed): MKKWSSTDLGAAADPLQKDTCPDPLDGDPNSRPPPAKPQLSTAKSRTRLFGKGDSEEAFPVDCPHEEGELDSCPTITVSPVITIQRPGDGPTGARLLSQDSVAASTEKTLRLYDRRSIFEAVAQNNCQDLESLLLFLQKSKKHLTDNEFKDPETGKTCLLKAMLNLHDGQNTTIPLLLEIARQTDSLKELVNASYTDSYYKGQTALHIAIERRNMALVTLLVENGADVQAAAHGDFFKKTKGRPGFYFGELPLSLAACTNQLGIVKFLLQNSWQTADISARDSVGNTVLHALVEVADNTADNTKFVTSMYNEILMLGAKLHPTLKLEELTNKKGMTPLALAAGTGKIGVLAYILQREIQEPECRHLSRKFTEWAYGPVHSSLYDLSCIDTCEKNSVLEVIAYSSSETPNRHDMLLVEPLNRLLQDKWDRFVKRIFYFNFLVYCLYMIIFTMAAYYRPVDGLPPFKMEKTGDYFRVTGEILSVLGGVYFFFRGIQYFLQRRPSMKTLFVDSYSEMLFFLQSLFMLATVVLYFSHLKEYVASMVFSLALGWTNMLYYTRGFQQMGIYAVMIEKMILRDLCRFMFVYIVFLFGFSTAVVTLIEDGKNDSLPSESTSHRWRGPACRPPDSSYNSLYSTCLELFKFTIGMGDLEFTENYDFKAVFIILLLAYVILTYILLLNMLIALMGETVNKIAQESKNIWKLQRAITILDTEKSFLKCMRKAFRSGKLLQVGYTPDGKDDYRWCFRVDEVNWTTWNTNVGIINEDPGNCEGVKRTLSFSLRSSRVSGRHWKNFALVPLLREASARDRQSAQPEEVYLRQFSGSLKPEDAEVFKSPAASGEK

[1] = tested on: Staphylococcus aureus ATCC 25923; assay: MIC/MBC assay, S. aureus; type: cell-based
Description: (§2) Escherichia coli K12 and Staphylococcus aureus ATCC 25923 were grown overnight at 37° C. and re-inoculated in 24-well plates containing 2.5 mL of Luria Bertani medium (LB) to give an optical density of ˜0.01 at 600 nm. Stock solutions of β-lapachone, and lapachol were prepared in DMSO (1% final concentration) and added to the cell suspensions to obtain final concentrations between 5-210 μM. Wells containing a growth control (cell suspensions with 1% DMSO) and a sterile media control were also prepared. The plates were incubated for 18 h at 37° C. and 90 r.p.m. The concentration of compound in the first well in the series that presented no sign of visible growth was reported as the MIC. The OD600 of the cultures was also measured. All the MIC wells were serially diluted in phosphate buffer saline (PBS) and plated onto LB agar plates.

Escherichia coli K12 = assay: MIC/MBC assay, E. coli; type: cell-based; conditions: read-out: Minimum bactericidal concentration
Description: as §2

HL-60 = assay: Cell viability, AML model HL-60 (FIG. 9a); type: cell-based; conditions: Homo sapiens, n=3

SMILES: CC1(C)CCC2=C(O1)c1ccccc1C(=O)C2=O [Compound 1, 3,4-dihydro-2,2-dimethyl-2H-naphtho[1,2-b]pyran-5,6-dione]
- IC50 (12-LO): > 30000 nM
- IC50 (15-LO): > 30000 nM
- Ligand efficiency (LE), 5-LO (5-lipoxygenase (5-LO); from IC50 2.1 μM): 0.44
- inhibition at 150 µM (5-lipoxygenase (5-LO); read-out: 5-LO inhibition at the assayed concentration): 96%
- IC50 (5-lipoxygenase (5-LO); reducing conditions): 2100 nM
- TRPV1 antagonist effect (TRPV1): 63%
- MIC ([1]; ATCC25923, 18 h, read-out: Minimum inhibitory concentration): 60 µM (≈ 14.5 µg/mL)
- MBC ([1]; ATCC25923, read-out: Minimum bactericidal concentration): > 200 µM
- MBC (Escherichia coli K12): > 200 µM
- IC50 (HL-60): 2700 nM
